Data from paper PMC7794376 (Nature Communications, 2021).
Values after ≈ are worked out from the molar mass of the structure shown. Values joined by “and” are separate entries in the source; they are usually repeats but may differ in a detail not shown here. Equal entries are not always repeated. Where two headings read alike, the source gives them in different places.

Legend:
M. tuberculosis H37Rv = experiment: MIC determination in different media; type: cell-based; conditions: Mycobacterium tuberculosis
MtbCoaBC = MtbCoaBC (Mycobacterium tuberculosis, UniProt P9WNZ1); experiment: biochemical; type: biochemical; conditions: for Activity R1 / Activity R3: slope of absorbance at 360 nm vs time (s); for activity at 0.0625 µM / activity at 0.25 µM / activity at 0.5 µM / activity at 1 µM / activity at 2 µM: relative to average DMSO CT; for IC50: read-out: IC50 EnzChek MtbCoaBC; for Activity % / Inhibition %: MtbCoaBC, replicates R1-R3; for Activity % / Activity % R1 / Activity % R3: relative to average CT; for reaction rate (slope of absorbance at 360 nm versus time), replicates: IC50 MtbCoaBC MlCoA; for reaction rate (slope of absorbance at 360 nm versus time), replicates / % inhibition, replicates / % remaining activity relative to uninhibited control, replicates: three replicates
[1] = MlCoA concentration 512 (log 2.70927; unit not given)
[2] = MlCoA concentration 1024 (log 3.0103; unit not given)

Chain of MtbCoaBC (P9WNZ1 whole entry): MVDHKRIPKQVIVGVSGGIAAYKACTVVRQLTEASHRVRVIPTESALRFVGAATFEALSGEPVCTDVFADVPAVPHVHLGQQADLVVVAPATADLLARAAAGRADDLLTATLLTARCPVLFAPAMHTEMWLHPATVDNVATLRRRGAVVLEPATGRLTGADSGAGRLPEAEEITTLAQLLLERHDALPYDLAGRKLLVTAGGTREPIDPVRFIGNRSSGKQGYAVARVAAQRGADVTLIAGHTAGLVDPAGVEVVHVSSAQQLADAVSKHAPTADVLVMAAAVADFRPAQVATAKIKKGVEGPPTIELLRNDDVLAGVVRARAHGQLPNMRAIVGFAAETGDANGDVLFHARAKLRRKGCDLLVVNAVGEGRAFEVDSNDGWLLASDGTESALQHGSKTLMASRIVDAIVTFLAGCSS

O=c1cc(-c2ccc(O)cc2)oc2cc(O)c(O)c(O)c12 [2c]
MIC (M. tuberculosis H37Rv; read-out: Minimum inhibitory concentration (MIC), 7H9/ADC/Glycerol): > 250 µM
MIC (M. tuberculosis H37Rv; read-out: Minimum inhibitory concentration (MIC), 7H9/Cholesterol/Tyloxapol): > 250 µM
MIC (M. tuberculosis H37Rv; read-out: Minimum inhibitory concentration (MIC), GAST/Fe): 125 µM (≈ 35.8 µg/mL)
Activity R1 (MtbCoaBC; 0.03125 uM 2c, replicate R1): 0.0001739
Activity R3 (MtbCoaBC; 0.03125 uM 2c, replicate R3): 0.000177
inhibition at 0.0625 µM (MtbCoaBC; 0.0625 uM 2c, replicate R1, read-out: Inhibition % R1): 8.57%
activity at 0.0625 µM (MtbCoaBC; 0.0625 uM 2c, replicate R1, read-out: Activity % R1): 91.4%
Activity R1 (MtbCoaBC; 0.0625 uM 2c, replicate R1): 0.0001646
inhibition at 0.0625 µM (MtbCoaBC; 0.0625 uM 2c, replicate R2, read-out: Inhibition % R2): 5.71%
activity at 0.0625 µM (MtbCoaBC; 0.0625 uM 2c, replicate R2, read-out: Activity % R2): 94.3%
inhibition at 0.0625 µM (MtbCoaBC; 0.0625 uM 2c, replicate R3, read-out: Inhibition % R3): 10.2%
activity at 0.0625 µM (MtbCoaBC; 0.0625 uM 2c, replicate R3, read-out: Activity % R3): 89.8%
Activity R3 (MtbCoaBC; 0.0625 uM 2c, replicate R3): 0.0001617
inhibition at 0.25 µM (MtbCoaBC; 0.25 uM 2c, replicate R1, read-out: Inhibition % R1): 34%
activity at 0.25 µM (MtbCoaBC; 0.25 uM 2c, replicate R1, read-out: Activity % R1): 66%
Activity R1 (MtbCoaBC; 0.25 uM 2c, replicate R1): 0.0001189
inhibition at 0.25 µM (MtbCoaBC; 0.25 uM 2c, replicate R2, read-out: Inhibition % R2): 32.6%
activity at 0.25 µM (MtbCoaBC; 0.25 uM 2c, replicate R2, read-out: Activity % R2): 67.4%
inhibition at 0.25 µM (MtbCoaBC; 0.25 uM 2c, replicate R3, read-out: Inhibition % R3): 28.9%
activity at 0.25 µM (MtbCoaBC; 0.25 uM 2c, replicate R3, read-out: Activity % R3): 71.1%
Activity R3 (MtbCoaBC; 0.25 uM 2c, replicate R3): 0.0001279
inhibition at 0.5 µM (MtbCoaBC; 0.5 uM 2c, replicate R1, read-out: Inhibition % R1): 56.9%
activity at 0.5 µM (MtbCoaBC; 0.5 uM 2c, replicate R1, read-out: Activity % R1): 43.1%
Activity R1 (MtbCoaBC; 0.5 uM 2c, replicate R1): 0.000077692
inhibition at 0.5 µM (MtbCoaBC; 0.5 uM 2c, replicate R2, read-out: Inhibition % R2): 60.3%
activity at 0.5 µM (MtbCoaBC; 0.5 uM 2c, replicate R2, read-out: Activity % R2): 39.7%
inhibition at 0.5 µM (MtbCoaBC; 0.5 uM 2c, replicate R3, read-out: Inhibition % R3): 53.5%
activity at 0.5 µM (MtbCoaBC; 0.5 uM 2c, replicate R3, read-out: Activity % R3): 46.5%
Activity R3 (MtbCoaBC; 0.5 uM 2c, replicate R3): 0.000083810
inhibition at 1 µM (MtbCoaBC; 1 uM 2c, replicate R1, read-out: Inhibition % R1): 77.6%
activity at 1 µM (MtbCoaBC; 1 uM 2c, replicate R1, read-out: Activity % R1): 22.4%
Activity R1 (MtbCoaBC; 1 uM 2c, replicate R1): 0.000040344
inhibition at 1 µM (MtbCoaBC; 1 uM 2c, replicate R2, read-out: Inhibition % R2): 82.6%
activity at 1 µM (MtbCoaBC; 1 uM 2c, replicate R2, read-out: Activity % R2): 17.4%
inhibition at 1 µM (MtbCoaBC; 1 uM 2c, replicate R3, read-out: Inhibition % R3): 72.1%
activity at 1 µM (MtbCoaBC; 1 uM 2c, replicate R3, read-out: Activity % R3): 27.9%
Activity R3 (MtbCoaBC; 1 uM 2c, replicate R3): 0.000050204
inhibition at 2 µM (MtbCoaBC; 2 uM 2c, replicate R1, read-out: Inhibition % R1): 91.9%
activity at 2 µM (MtbCoaBC; 2 uM 2c, replicate R1, read-out: Activity % R1): 8.07%
Activity R1 (MtbCoaBC; 2 uM 2c, replicate R1): 0.000014525
inhibition at 2 µM (MtbCoaBC; 2 uM 2c, replicate R2, read-out: Inhibition % R2): 95%
activity at 2 µM (MtbCoaBC; 2 uM 2c, replicate R2, read-out: Activity % R2): 5.02%
inhibition at 2 µM (MtbCoaBC; 2 uM 2c, replicate R3, read-out: Inhibition % R3): 84.9%
activity at 2 µM (MtbCoaBC; 2 uM 2c, replicate R3, read-out: Activity % R3): 15.1%
Activity R3 (MtbCoaBC; 2 uM 2c, replicate R3): 0.000027204
activity at 0.03125 µM (MtbCoaBC; read-out: Activity % R1): 96.6%
activity at 0.03125 µM (MtbCoaBC; read-out: Activity % R2): 96.7%
activity at 0.03125 µM (MtbCoaBC; read-out: Activity % R3): 98.3%
IC50 (MtbCoaBC): 0.41 ± 0.03 µM
inhibition at 0.03125 µM (MtbCoaBC; read-out: Inhibition % R1): 3.4%
inhibition at 0.03125 µM (MtbCoaBC; read-out: Inhibition % R2): 3.27%
inhibition at 0.03125 µM (MtbCoaBC; read-out: Inhibition % R3): 1.68%

CC(C)(COP(=O)(O)OP(=O)(O)OC[C@H]1O[C@@H](n2cnc3c(N)ncnc32)[C@H](O)[C@@H]1OP(=O)(O)O)[C@@H](O)C(=O)NCCC(=O)NCCSC(=O)CC(=O)O [MlCoA, malonyl-CoA]
Activity % (MtbCoaBC; 8 uM MlCoA): 92.1% and 91.15% and 93.21%
Inhibition % (MtbCoaBC; 8 uM MlCoA): 8.85% and 6.79% and 7.90%
Activity % (MtbCoaBC; 16 uM MlCoA): 76.14% and 76.7% and 75.8%
Inhibition % (MtbCoaBC; 16 uM MlCoA): 23.30% and 24.20% and 23.86%
Activity % (MtbCoaBC; 32 uM MlCoA): 63.4% and 64.14% and 61%
Inhibition % (MtbCoaBC; 32 uM MlCoA): 35.86% and 39.00% and 36.60%
Activity % (MtbCoaBC; 64 uM MlCoA): 43.31% and 44.56% and 41.61%
Inhibition % (MtbCoaBC; 64 uM MlCoA): 55.44% and 58.39% and 56.69%
Activity % (MtbCoaBC; 128 uM MlCoA): 23.32% and 26.33% and 20.47%
Inhibition % (MtbCoaBC; 128 uM MlCoA): 73.67% and 79.53% and 76.68%
Activity % (MtbCoaBC; 256 uM MlCoA): 12.52% and 10.98% and 14.64%
Inhibition % (MtbCoaBC; 256 uM MlCoA): 89.02% and 85.36% and 87.48%
IC50 (MtbCoaBC; CoaB activity, […] CTP, […] PPA, 500 µM L-cysteine, average of three independent experiments ± SD): 48 ± 3 µM
reaction rate (slope of absorbance at 360 nm versus time), replicates (MtbCoaBC; [1]): 0.000003647 and 0.000000222 and 0.000004502
% inhibition, replicates (MtbCoaBC; [1]): 99.87 and 97.43 and 97.92
% remaining activity relative to uninhibited control, replicates (MtbCoaBC; [1]): 2.081 and 0.1265 and 2.569
reaction rate (slope of absorbance at 360 nm versus time), replicates (MtbCoaBC; [2]): 0.000003588 and 0.000000204 and 0.000003109
% inhibition, replicates (MtbCoaBC; [2]): 99.88 and 98.23 and 97.95
% remaining activity relative to uninhibited control, replicates (MtbCoaBC; [2]): 2.047 and 0.1162 and 1.774

succinyl-CoA [SucCoA]
Activity % R1 (MtbCoaBC; 8 uM SucCoA, replicate R1): 96.11%
Activity % R3 (MtbCoaBC; 8 uM SucCoA, replicate R3): 95.1%
Inhibition % R1 (MtbCoaBC; 8 uM SucCoA, replicate R1): 3.89%
Inhibition % R3 (MtbCoaBC; 8 uM SucCoA, replicate R3): 4.90%
Activity R1 (MtbCoaBC; 8 uM SucCoA, replicate R1): 0.0001648
Activity R3 (MtbCoaBC; 8 uM SucCoA, replicate R3): 0.0001631
Activity % R1 (MtbCoaBC; 16 uM SucCoA, replicate R1): 73.57%
Activity % R3 (MtbCoaBC; 16 uM SucCoA, replicate R3): 71.48%
Inhibition % R1 (MtbCoaBC; 16 uM SucCoA, replicate R1): 26.43%
Inhibition % R3 (MtbCoaBC; 16 uM SucCoA, replicate R3): 28.52%
Activity R1 (MtbCoaBC; 16 uM SucCoA, replicate R1): 0.0001261
Activity R3 (MtbCoaBC; 16 uM SucCoA, replicate R3): 0.0001226
Activity % R1 (MtbCoaBC; 32 uM SucCoA, replicate R1): 58.32%
Activity % R3 (MtbCoaBC; 32 uM SucCoA, replicate R3): 59.99%
Inhibition % R1 (MtbCoaBC; 32 uM SucCoA, replicate R1): 41.68%
Inhibition % R3 (MtbCoaBC; 32 uM SucCoA, replicate R3): 40.01%
Activity R1 (MtbCoaBC; 32 uM SucCoA, replicate R1): 0.000099995
Activity R3 (MtbCoaBC; 32 uM SucCoA, replicate R3): 0.0001029
Activity % R1 (MtbCoaBC; 64 uM SucCoA, replicate R1): 30.98%
Activity % R3 (MtbCoaBC; 64 uM SucCoA, replicate R3): 29.66%
Inhibition % R1 (MtbCoaBC; 64 uM SucCoA, replicate R1): 69.02%
Inhibition % R3 (MtbCoaBC; 64 uM SucCoA, replicate R3): 70.34%
Activity R1 (MtbCoaBC; 64 uM SucCoA, replicate R1): 0.000053122
Activity R3 (MtbCoaBC; 64 uM SucCoA, replicate R3): 0.000050860
Activity % R1 (MtbCoaBC; 128 uM SucCoA, replicate R1): 16.56%
Activity % R3 (MtbCoaBC; 128 uM SucCoA, replicate R3): 18.74%
Inhibition % R1 (MtbCoaBC; 128 uM SucCoA, replicate R1): 83.44%
Inhibition % R3 (MtbCoaBC; 128 uM SucCoA, replicate R3): 81.26%
Activity R1 (MtbCoaBC; 128 uM SucCoA, replicate R1): 0.000028403
Activity R3 (MtbCoaBC; 128 uM SucCoA, replicate R3): 0.000032131
Activity % R1 (MtbCoaBC; 256 uM SucCoA, replicate R1): 6.801%
Activity % R3 (MtbCoaBC; 256 uM SucCoA, replicate R3): 8.41%
Inhibition % R1 (MtbCoaBC; 256 uM SucCoA, replicate R1): 93.20%
Inhibition % R3 (MtbCoaBC; 256 uM SucCoA, replicate R3): 91.59%
Activity R1 (MtbCoaBC; 256 uM SucCoA, replicate R1): 0.000011661
Activity R3 (MtbCoaBC; 256 uM SucCoA, replicate R3): 0.000014421
